# In patent publication US12208088B2 (Genentech, Inc., priority 2018, dated 2025):
# pKi: −log10 of the molar value. Counter-ions that a name gives are not always drawn.
# Target: HPK1 (Homo sapiens (Human), UniProt Q92918)
# Assay: HPK1 Lantha binding assay ("Lanth")
# Settings: binding assays; Morrison Ki fit
# Method in brief: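 Ki values are from Morrison-equation fitting of 665/615 nm TR-FRET signals, taking enzyme level, tracer level and tracer Kd into account. The assay mix held HPK1 (2 nM), Eu-anti-GST antibody (2 nM) and Tracer222 (15 nM). Incubations were two 1 h steps at 23 °C, on 5-fold serial compound dilutions.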
# Chain of HPK1 (Q92918 1-346 limits assumed): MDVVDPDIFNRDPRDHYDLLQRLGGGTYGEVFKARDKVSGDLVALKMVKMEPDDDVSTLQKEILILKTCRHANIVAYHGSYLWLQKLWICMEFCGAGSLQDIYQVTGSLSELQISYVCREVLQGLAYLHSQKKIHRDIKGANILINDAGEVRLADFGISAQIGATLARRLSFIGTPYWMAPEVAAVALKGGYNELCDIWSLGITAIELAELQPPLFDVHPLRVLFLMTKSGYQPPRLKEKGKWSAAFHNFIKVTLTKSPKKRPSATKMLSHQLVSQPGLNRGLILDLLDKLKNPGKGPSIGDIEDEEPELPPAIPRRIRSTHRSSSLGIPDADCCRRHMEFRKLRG
row,Structure (SMILES),pKi
1,"Cc1n[nH]cc1-c1cnc2c(c1Cl)C1(CC=CC1)CN2 [Compound 308, 4′-Chloro-5′-(3-methyl-1H-pyrazol-4-yl)-1′,2′-dihydrospiro[cyclopentane-1,3′-pyrrolo[2,3-b]pyridin]-3-ene]",6.73
2,"NC(=O)CCn1cc(-c2cnc3c(c2Cl)C2(CC=CC2)CN3)cn1 [Compound 311, 3-(4-(4′-Chloro-1′,2′-dihydrospiro[cyclopentane-1,3′-pyrrolo[2,3-b]pyridin]-3-en-5′-yl)-1H-pyrazol-1-yl)propanamide]",6.79
3,"c1ccc2c(-c3cnc4c(c3)C3(CC3)CN4)c[nH]c2c1 [Compound 314, 5′-(1H-Indol-3-yl)-1′,2′-dihydrospiro[cyclopropane-1,3′-pyrrolo[2,3-b]pyridine]]",6.90
4,"Fc1cccc2[nH]cc(-c3cnc4c(c3)C3(CC3)CN4)c12 [Compound 316, 5′-(4-Fluoro-1H-indol-3-yl)-1′,2′-dihydrospiro[cyclopropane-1,3′-pyrrolo[2,3-b]pyridine]]",6.31
5,"OCCn1cc(-c2cnc3c(c2Cl)C2(CC=CC2)CN3)cn1 [Compound 317, 2-(4-(4′-Chloro-1′,2′-dihydrospiro[cyclopentane-1,3′-pyrrolo[2,3-b]pyridin]-3-en-5′-yl)-1H-pyrazol-1-yl)ethan-1-ol]",6.68
6,"NC(=O)Cn1cc(-c2cnc3c(c2Cl)C2(CC=CC2)CN3)cn1 [Compound 318, 2-(4-(4′-Chloro-1′,2′-dihydrospiro[cyclopentane-1,3′-pyrrolo[2,3-b]pyridin]-3-en-5′-yl)-1H-pyrazol-1-yl)acetamide]",6.63
7,"CN(C)C(=O)Cn1cc(-c2cnc3c(c2Cl)C2(CC=CC2)CN3)cn1 [Compound 319, 2-(4-(4′-Chloro-1′,2′-dihydrospiro[cyclopentane-1,3′-pyrrolo[2,3-b]pyridin]-3-en-5′-yl)-1H-pyrazol-1-yl)-N,N-dimethylacetamide]",6.51
8,"CC(C)(O)Cn1cc(-c2cnc3c(c2Cl)C2(CC=CC2)CN3)cn1 [Compound 320, 1-(4-(4′-Chloro-1′,2′-dihydrospiro[cyclopentane-1,3′-pyrrolo[2,3-b]pyridin]-3-en-5′-yl)-1H-pyrazol-1-yl)-2-methylpropan-2-ol]",6.47
9,"Cc1[nH]ncc1-c1cnc2c(c1)C1(CC1)CN2 [Compound 321, 5′-(5-Methyl-1H-pyrazol-4-yl)-1′,2′-dihydrospiro[cyclopropane-1,3′-pyrrolo[2,3-b]pyridine]]",6.49
10,"Clc1c(-c2cnn(Cc3ccccc3)c2)cnc2c1C1(CC=CC1)CN2 [Compound 323, 5′-(1-Benzyl-1H-pyrazol-4-yl)-4′-chloro-1′,2′-dihydrospiro[cyclopentane-1,3′-pyrrolo[2,3-b]pyridin]-3-ene]",6.22
11,"Cc1n[nH]cc1-c1ccc2[nH]cc(-c3cnc4c(c3)C3(CC3)CN4)c2c1 [Compound 326, 5′-(5-(3-Methyl-1H-pyrazol-4-yl)-1H-indol-3-yl)-1′,2′-dihydrospiro[cyclopropane-1,3′-pyrrolo[2,3-b]pyridine]]",7.12
12,"COCCn1cc(-c2cnc3c(c2Cl)C2(CC=CC2)CN3)cn1 [Compound 327, 4′-Chloro-5′-(1-(2-methoxyethyl)-1H-pyrazol-4-yl)-1′,2′-dihydrospiro[cyclopentane-1,3′-pyrrolo[2,3-b]pyridin]-3-ene]",6.40
13,"c1nc2c(cc1-c1c[nH]c3ccc(C4CC4)cc13)C1(CC1)CN2 [Compound 328, 5′-(5-Cyclopropyl-1H-indol-3-yl)-1′,2′-dihydrospiro[cyclopropane-1,3′-pyrrolo[2,3-b]pyridine]]",6.54
14,"c1cc2[nH]cc(-c3cnc4c(c3)C3(CC3)CN4)c2cn1 [Compound 329, 5-(1H-Pyrrolo[3,2-c]pyridin-3-yl)spiro[1,2-dihydropyrrolo[2,3-b]pyridine-3,1′-cyclopropane]]",7.05
15,"CS(=N)(=O)c1ccc2[nH]cc(-c3cnc4c(c3)C3(CC3)CN4)c2c1 (stereo not drawn) [Compound 331, (3-(1′,2′-Dihydrospiro[cyclopropane-1,3′-pyrrolo[2,3-b]pyridin]-5′-yl)-1H-indol-5-yl)(imino)(methyl)-γ6-sulfanone]",6.61
16,"c1ccc2c(c1)nnn2-c1cnc2c(c1)C1(CC1)CN2 [Compound 332, 5-(Benzotriazol-1-yl)spiro[1,2-dihydropyrrolo[2,3-b]pyridine-3,1′-cyclopropane]]",6.24
17,"Cn1cnnc1-c1ccc2[nH]cc(-c3cnc4c(c3)C3(CC3)CN4)c2c1 [Compound 335, 5′-(5-(4-Methyl-4H-1,2,4-triazol-3-yl)-1H-indol-3-yl)-1′,2′-dihydrospiro[cyclopropane-1,3′-pyrrolo[2,3-b]pyridine]]",6.89
18,"Fc1ccc2[nH]cc(-c3cnc4c(c3)C3(CC3)CN4)c2c1 [Compound 338, 5′-(5-Fluoro-1H-indol-3-yl)-1′,2′-dihydrospiro[cyclopropane-1,3′-pyrrolo[2,3-b]pyridine]]",7.10
19,"CN(C)C(=O)c1ccc2[nH]cc(-c3cnc4c(c3)C3(CC3)CN4)c2c1 [Compound 339, 3-(1′,2′-Dihydrospiro[cyclopropane-1,3′-pyrrolo[2,3-b]pyridin]-5′-yl)-N,N-dimethyl-1H-indole-5-carboxamide]",6.43

# These reach a higher pKi. Values come first.
row,pKi,Structure (SMILES)
1,7.17,"CN(C)C(=O)Cc1cccc2c(-c3cnc4c(c3Cl)C3(CC3)CN4)c[nH]c12 [Compound 301, 2-(3-(4′-Chloro-1′,2′-dihydrospiro[cyclopropane-1,3′-pyrrolo[2,3-b]pyridin]-5′-yl)-1H-indol-7-yl)-N,N-dimethylacetamide]"
2,7.33,"O=C1COCCN1c1cccc2c(-c3cnc4c(c3Cl)C3(CC3)CN4)c[nH]c12 [Compound 302, 4-(3-(4′-Chloro-1′,2′-dihydrospiro[cyclopropane-1,3′-pyrrolo[2,3-b]pyridin]-5′-yl)-1H-indol-7-yl)morpholin-3-one]"
3,7.49,"O=C1CNCCN1c1cccc2c(-c3cnc4c(c3)C3(CC3)CN4)c[nH]c12 [Compound 303, 1-(3-(1′,2′-Dihydrospiro[cyclopropane-1,3′-pyrrolo[2,3-b]pyridin]-5′-yl)-1H-indol-7-yl)piperazin-2-one]"
4,7.76,"N#Cc1ccc2[nH]cc(-c3cnc4c(c3)C3(CC3)CN4)c2c1 [Compound 307, 3-(1′,2′-Dihydrospiro[cyclopropane-1,3′-pyrrolo[2,3-b]pyridin]-5′-yl)-1H-indole-5-carbonitrile]"
5,7.54,"COc1c(-c2ccc(N)c(C(=O)N(C)C)n2)cnc2c1C1(CC1)CN2 [Compound 309, 3-Amino-6-(4′-methoxy-1′,2′-dihydrospiro[cyclopropane-1,3′-pyrrolo[2,3-b]pyridin]-5′-yl)-N,N-dimethylpicolinamide]"
6,7.97,"CN1CCN(c2cc(Cl)cc3c(-c4cnc5c(c4)C4(CC4)CN5)c[nH]c23)C(=O)C1 [Compound 310, 1-(5-Chloro-3-(1′,2′-dihydrospiro[cyclopropane-1,3′-pyrrolo[2,3-b]pyridin]-5′-yl)-1H-indol-7-yl)-4-methylpiperazin-2-one]"
7,7.34,"Clc1ccc2[nH]cc(-c3cnc4c(c3)C3(CC3)CN4)c2c1 [Compound 312, 5′-(5-Chloro-1H-indol-3-yl)-1′,2′-dihydrospiro[cyclopropane-1,3′-pyrrolo[2,3-b]pyridine]]"
8,7.14,"Cc1ccc2[nH]cc(-c3cnc4c(c3)C3(CC3)CN4)c2c1 [Compound 313, 5′-(5-Methyl-1H-indol-3-yl)-1′,2′-dihydrospiro[cyclopropane-1,3′-pyrrolo[2,3-b]pyridine]]"
9,7.46,"COc1c(-c2c[nH]c3ccc(C#N)cc23)cnc2c1C1(CC1)CN2 [Compound 315, 3-(4′-Methoxy-1′,2′-dihydrospiro[cyclopropane-1,3′-pyrrolo[2,3-b]pyridin]-5′-yl)-1H-indole-5-carbonitrile]"
10,7.43,"N#Cc1ccc2[nH]nc(-c3cnc4c(c3)C3(CC3)CN4)c2c1 [Compound 322, 3-(1′,2′-Dihydrospiro[cyclopropane-1,3′-pyrrolo[2,3-b]pyridin]-5′-yl)-1H-indazole-5-carbonitrile]"
11,7.52,"CN1CCN(c2cc(C#N)cc3c(-c4cnc5c(c4)C4(CC4)CN5)c[nH]c23)C(=O)C1 [Compound 324, 3-(1′,2′-Dihydrospiro[cyclopropane-1,3′-pyrrolo[2,3-b]pyridin]-5′-yl)-7-(4-methyl-2-oxopiperazin-1-yl)-1H-indole-5-carbonitrile]"
12,7.39,"N#Cc1ccc2[nH]cc(-c3cnc4c(c3Cl)[C@]3(CC[C@H](O)CC3)CN4)c2c1 [Compound 325a, 3-((1s,4s)-4′-Chloro-4-hydroxy-1′,2′-dihydrospiro[cyclohexane-1,3′-pyrrolo[2,3-b]pyridin]-5′-yl)-1H-indole-5-carbonitrile]"
13,7.37,"c1cc2c(-c3cnc4c(c3)C3(CC3)CN4)c[nH]c2cn1 [Compound 333, 5-(1H-Pyrrolo[2,3-c]pyridin-3-yl)spiro[1,2-dihydropyrrolo[2,3-b]pyridine-3,1′-cyclopropane]]"
14,7.32,"c1nnc(-c2ccc3[nH]cc(-c4cnc5c(c4)C4(CC4)CN5)c3c2)o1 [Compound 334, 2-(3-(1′,2′-Dihydrospiro[cyclopropane-1,3′-pyrrolo[2,3-b]pyridin]-5′-yl)-1H-indol-5-yl)-1,3,4-oxadiazole Formate Salt]"
15,7.33,"Cc1cc2[nH]cc(-c3cnc4c(c3)C3(CC3)CN4)c2cc1-c1cnn(C)c1 [Compound 336, 5′-(6-Methyl-5-(1-methyl-1H-pyrazol-4-yl)-1H-indol-3-yl)-1′,2′-dihydrospiro[cyclopropane-1,3′-pyrrolo[2,3-b]pyridine]]"
16,7.83,"CN(c1cc(C#N)cc2c(-c3cnc4c(c3)C3(CC3)CN4)c[nH]c12)S(C)(=O)=O [Compound 340, N-(5-Cyano-3-(1′,2′-dihydrospiro[cyclopropane-1,3′-pyrrolo[2,3-b]pyridin]-5′-yl)-1H-indol-7-yl)-N-methylmethanesulfonamide]"
17,7.91,"CN(c1cc(C#N)cc2c(-c3cnc4c(c3)C3(CC3)CN4)cn(C)c12)S(C)(=O)=O [Compound 341, N-(5-Cyano-3-(1′,2′-dihydrospiro[cyclopropane-1,3′-pyrrolo[2,3-b]pyridin]-5′-yl)-1-methyl-1H-indol-7-yl)-N-methylmethanesulfonamide]"
